≈ marks a conversion by molar mass, not a printed value.
Legend:
Type in all cases: functional
[1] = tested on: Mycobacterium tuberculosis; test: Antibacterial activity against isoniazid and rifampicin-resistant Mycobacterium tuberculosis T113/09 assessed as inhibition of bacterial growth
[2] = tested on: Mycobacterium tuberculosis; test: Antibacterial activity against ethambutol-resistant Mycobacterium tuberculosis H37Rv assessed as inhibition of bacterial growth
[3] = tested on: Mycobacterium tuberculosis; test: Antibacterial activity against streptomycin-resistant Mycobacterium tuberculosis H37Rv assessed as inhibition of bacterial growth
[4] = tested on: Mycobacterium tuberculosis; test: Antibacterial activity against rifampicin-resistant Mycobacterium tuberculosis H37Rv assessed as inhibition of bacterial growth
[5] = tested on: Mycobacterium tuberculosis; test: Antibacterial activity against isoniazid-resistant Mycobacterium tuberculosis H37Rv assessed as inhibition of bacterial growth
[6] = tested on: Mycobacterium tuberculosis; test: Antibacterial activity against multidrug-resistant Mycobacterium tuberculosis assessed as inhibition of bacterial growth
[7] = tested on: Mycobacterium tuberculosis; test: Antibacterial activity against extensively drug-resistant Mycobacterium tuberculosis assessed as inhibition of bacterial growth
[8] = tested on: Mycobacterium tuberculosis; test: Antibacterial activity against multidrug-resistant Mycobacterium tuberculosis clinical isolate H37Rv assessed as inhibition of bacterial growth
[9] = tested on: Mycobacterium tuberculosis; test: Antibacterial activity against extensively drug-resistant Mycobacterium tuberculosis clinical isolate H37Rv assessed as inhibition of bacterial growth
[10] = tested on: Mycobacterium tuberculosis; test: Antibacterial activity against extensively drug-resistant Mycobacterium tuberculosis assessed as inhibition of bacterial growth by microplate alamar blue assay
[11] = tested on: Mycobacterium tuberculosis; test: Antibacterial activity against multidrug-resistant Mycobacterium tuberculosis assessed as inhibition of bacterial growth by microplate alamar blue assay
[12] = tested on: Mycobacterium tuberculosis; test: Antibacterial activity against multidrug-resistant Mycobacterium tuberculosis clinical isolate CDCT-16 assessed as inhibition of bacterial growth
[13] = tested on: Mycobacterium tuberculosis; test: Antibacterial activity against multidrug-resistant Mycobacterium tuberculosis clinical isolate CDCT-27 assessed as inhibition of bacterial growth

`CCCCCCc1ccc(-c2cn(CC(=O)Cn3ccnc3[N+](=O)[O-])nn2)cc1` showed an MIC [1] of 16.3 µM (≈ 6.46 µg/mL).

`COC(=O)c1cc(-c2ccc(OC)c(NC(=O)c3cc(-c4cccc(Cl)c4)nc4ccccc34)c2)on1` showed an MIC [2] of 0.25 µg/mL (≈ 0.486 µM), an MIC [3] of 0.25 µg/mL (≈ 0.486 µM) and an MIC [4] of 0.25 µg/mL (≈ 0.486 µM). For the same molecule, the MIC [5] was 0.5 µg/mL (≈ 0.973 µM).

With `COc1ccc(-c2nn(-c3ccc([N+](=O)[O-])cc3[N+](=O)[O-])c(N)c2C#N)cc1Oc1cccc(Br)c1C#N` the MIC [6] was 1.95 µg/mL (≈ 3.38 µM) and the MIC [7] was 3.9 µg/mL (≈ 6.77 µM).

`CC(C)/N=c1\cc2n(-c3ccccc3)c3ccccc3nc-2cc1Nc1ccc(N2CCN(C)CC2)c(F)c1` showed an MIC [8] of 0.08 µg/mL (≈ 0.154 µM) and an MIC [9] of 0.08 µg/mL (≈ 0.154 µM).

With `O=C(N/N=C1\C(=O)N(Cc2ccccc2)c2ccccc21)c1cnc2cc(Cl)ccc2c1O` the MIC [10] was 1.95 µg/mL (≈ 4.27 µM) and the MIC [11] was 0.24 µg/mL (≈ 0.525 µM).

For `Cc1nc2cc(C(F)(F)F)ccc2n1-c1ncc(C(F)(F)F)s1`, the MIC [12] was 4.16 µM (≈ 1.46 µg/mL) and the MIC [13] was 3.68 µM (≈ 1.29 µg/mL).

Source: ChEMBL document CHEMBL5365393, “Comprehensive coverage on anti-mycobacterial endeavour reported during 2022” (Eur J Med Chem, 2023)
